Data reported in patent publication US20030041357A1, “Herbicide resistant plants” (priority 1996, published 2003).

How the values were obtained:
wild-type tobacco = assay: Rooting assay on MS medium with herbicide; format: in vivo, Nicotiana tabacum cv Samsum; conditions: for root growth of explants: 3 weeks, 10, 20, 40 ppm acetochlor/metolachlor, 20, 40, 100 ppm alachlor
[1] = target: GST-27 (leaf extracts of GST-27 expressing tobacco) (Zea mays, UniProt P46420); assay: In vitro HPLC assay of GST activity against herbicide substrates; format: biochemical; conditions: GST-27 tobacco extracts, 5 mM glutathione, 20 ppm herbicide
Chain of GST-27 (leaf extracts of GST-27 expressing tobacco) (P46420 whole entry): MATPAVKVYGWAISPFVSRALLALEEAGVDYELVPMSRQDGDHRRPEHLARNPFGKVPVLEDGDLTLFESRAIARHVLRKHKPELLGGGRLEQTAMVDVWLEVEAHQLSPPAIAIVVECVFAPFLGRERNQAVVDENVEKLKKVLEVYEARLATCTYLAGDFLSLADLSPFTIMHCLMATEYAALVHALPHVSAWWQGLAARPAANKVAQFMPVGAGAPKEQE

GST-27 tobacco lines = assay: Rooting assay on MS medium with herbicide; format: in vivo, Nicotiana tabacum cv Samsum
[2] = tested on: wild type tomato (cv Ailsa Craig); assay: PDS inhibitor herbicide tolerance trial; format: in vivo
[3] = tested on: transgenic tomato over-expressing the Erwinia uredovora crt1 (PDS) gene; assay: PDS inhibitor herbicide tolerance trial; format: in vivo; conditions: for Phytotoxity at 27 PAT: Transgenic tomato
[4] = tested on: pDV6 plants expressing both glyphosate resistance genes and GST; assay: Pre-em/post-em herbicide treatment of DV6 plants (Table 1); parameters: species or system Tobacco; conditions: in vivo
[5] = tested on: primary transformants from pDV6-Bin; assay: Growth on herbicide-containing tissue culture medium; format: in vivo, Tobacco; conditions: a number of transgenics; 0.01 and 0.05 mM glyphosate; 10 and 40 ppm alachlor
[6] = tested on: transgenic tobacco plants expressing GST-27; assay: Pre-emergence glasshouse herbicide trial; format: in vivo, Nicotiana tabacum cv Samsum; conditions: 300 and 350 g/ha in 5% JF 5969
wild type controls = assay: Growth on herbicide-containing tissue culture medium; format: in vivo, Tobacco; conditions: 0.01 and 0.05 mM glyphosate; 10 and 40 ppm alachlor
[7] = tested on: transgenic tobacco plants expressing GST-27; assay: Post-emergence glasshouse herbicide trial; format: in vivo, Nicotiana tabacum cv Samsum; conditions: sprayed 16 days after sowing, 5% JF 5969
[8] = tested on: maize seedlings which contain the PAT gene; assay: Glufosinate spray of maize seedlings; format: in vivo; conditions: commercial mix, about 0.1 to 1% active ingredient
[9] = tested on: transgenic maize seedlings expressing GST-27; assay: Acetochlor-treated soil seedling test; format: in vivo; conditions: soil treated with 2,000 to 8,000 grams per hectare, 7 days
Wild Type tobacco = assay: Herbicide trial of DV6/HPPD cross (Example 10); format: in vivo; conditions: 75 g/ha
DV6/HPPD tobacco = assay: Herbicide trial of DV6/HPPD cross (Example 10); format: in vivo; conditions: 75 g/ha
[10] = tested on: non-transgenic maize seedlings; assay: Acetochlor-treated soil seedling test; format: in vivo; conditions: soil treated with 2,000 to 8,000 grams per hectare, absence of safener, 7 days
[11] = line 2, pilot experiment, 2 weeks
[12] = line 6, pilot experiment, 2 weeks

CCc1cccc(C)c1N(C(=O)CCl)C(C)COC (stereo not shown) [Metolachlor, metolachlor]
root growth of explants (wild-type tobacco): produces very few tiny roots at 10 and 20 ppm | GST activity against herbicide substrate (HPLC) [1]: lowest activity | rooting concentration limit (GST-27 tobacco lines; GST-27 line 17, 3 weeks): more than 40 ppm | root growth of explants (GST-27 tobacco lines; GST-27 lines 6 and 17, 3 weeks): produce short roots

CCC1CN(c2cccc(C(F)(F)F)c2)C(=O)C1C(=O)NC (stereo not shown) [Compound III]
Phytotoxity at 27 PAT ([2]; 37 g/ha): 0% | Phytotoxity at 27 PAT ([2]; 111 g/ha): 8.3% | Phytotoxity at 27 PAT ([2]; 333 g/ha): 56.7% | Phytotoxity at 27 PAT ([2]; 1000 g/ha): 100% | Phytotoxity at 27 PAT ([3]; 111 g/ha): 0% | Phytotoxity at 27 PAT ([3]; 333 g/ha): 0% | Phytotoxity at 27 PAT ([3]; 1000 g/ha): 10% | Phytotoxity at 27 PAT ([3]; 3000 g/ha): 3.3%

O=C1C(Cl)C(CCl)CN1c1cccc(C(F)(F)F)c1 (stereo not shown) [Compound I]
Phytotoxity at 27 PAT ([2]; 333 g/ha): 0% | Phytotoxity at 27 PAT ([2]; 1000 g/ha): 23.3% | Phytotoxity at 27 PAT ([2]; 3000 g/ha): 100% | Phytotoxity at 27 PAT ([2]; 9000 g/ha): 100% | Phytotoxity at 27 PAT ([3]; 333 g/ha): 0% | Phytotoxity at 27 PAT ([3]; 1000 g/ha): 0% | Phytotoxity at 27 PAT ([3]; 3000 g/ha): 0% | Phytotoxity at 27 PAT ([3]; 9000 g/ha): 0% | rate to which transgenic tomatoes are highly tolerant ([3]; transgenic tomatoes): up to 9 kg/ha

CCCN(CCC)C(=O)SCC [EPTC]
% Phytotoxicity (mean, 21 DAT) [4]: 0%

COc1nn(-c2cccc(C(F)(F)F)c2)/c(=N\C(=O)OC(C)C)s1 [Compound II]
Phytotoxity at 27 PAT ([2]; 37 g/ha): 3.3% | Phytotoxity at 27 PAT ([2]; 111 g/ha): 13.3% | Phytotoxity at 27 PAT ([2]; 333 g/ha): 20% | Phytotoxity at 27 PAT ([2]; 1000 g/ha): 100% | Phytotoxity at 27 PAT ([3]; 111 g/ha): 3.3% | Phytotoxity at 27 PAT ([3]; 333 g/ha): 0% | Phytotoxity at 27 PAT ([3]; 1000 g/ha): 3.3% | Phytotoxity at 27 PAT ([3]; 3000 g/ha): 0%

CCc1cccc(CC)c1N(COC)C(=O)CCl [Alachlor, alachlor]
growth on tissue culture medium [5]: grow successfully | root growth of explants (wild-type tobacco): does not produce any root | concentration from which an effect of the herbicide is observable (wild-type tobacco; pilot experiment, 2 weeks): ≥ 1 ppm | concentration from which plants do not produce new leaves (wild-type tobacco; pilot experiment, 2 weeks): ≥ 10 ppm | concentration up to which roots are produced (wild-type tobacco; pilot experiment, 2 weeks): up to 5 ppm | resistance to pre-emergent application (germination scored after 3 weeks) [6]: resistant | concentration up to which roots are produced (GST-27 tobacco lines; GST-27 lines 6 and 17, 3 weeks): ≤ 40 ppm | root growth of explants (GST-27 tobacco lines; Lines 9 and 16, 20 and 40 ppm, 3 weeks): do not produce any roots | concentration from which an effect of the herbicide is observable (GST-27 tobacco lines; [11]): ≥ 20 ppm | concentration up to which roots are produced (GST-27 tobacco lines; [11]): up to 10 ppm | concentration from which an effect of the herbicide is observable (GST-27 tobacco lines; [12]): ≥ 40 ppm | concentration up to which roots are produced (GST-27 tobacco lines; [12]): ≤ 20 ppm | growth on tissue culture medium (wild type controls): fail to | resistance to post-emergent spray (damage scored after 3 weeks) [7]: resistant

CP(=O)(O)CCC(N)C(=O)O (stereo not shown) [glufosinate]
resistance of seedlings to spray [8]: either completely resistant to glufosinate, or are relatively tolerant of the herbicide

CCOCN(C(=O)CCl)c1c(C)cccc1CC [Acetochlor, acetochlor]
seedling damage [9]: little, if any damage | root growth of explants (wild-type tobacco): do not show any rooting | GST activity against herbicide substrate (HPLC) [1]: lowest activity | root growth of explants (GST-27 tobacco lines; GST-27 lines 6 and 17, 3 weeks): produce few roots at 10 and 20 ppm | root growth of explants (GST-27 tobacco lines; lines 5 and 12, 3 weeks): not as resistant | phytotoxicity score, 21 DAT (Wild Type tobacco; Wild Type Rep a): 40 | phytotoxicity score, 21 DAT (Wild Type tobacco; Wild type Rep b): 100 | phytotoxicity score, 21 DAT (DV6/HPPD tobacco; DV6/HPPD Rep a): 0 | phytotoxicity score, 21 DAT (DV6/HPPD tobacco; DV6/HPPD Rep b): 0 | seedling damage [10]: very substantial damage
